Data from patent US20240382498A1, “NOVEL INHIBITOR OF HYPE-MEDIATED AMPYLATION” (Purdue Research Foundation, priority 2023, published 2024).
Read-outs that look alike come from different tables or passages of the source.

Target: T1, E234G HYPE (Homo sapiens, UniProt Q9BVA6, E234G)
T1 construct: Δ102 (aa 103-458) HYPE constructs (WT, E234G, and E234G/H363A); His6-SUMO (cleaved yes); made in house; host or cells: E. coli BL21-DE3-RILP
T1 sequence (Q9BVA6 103-458 E234G): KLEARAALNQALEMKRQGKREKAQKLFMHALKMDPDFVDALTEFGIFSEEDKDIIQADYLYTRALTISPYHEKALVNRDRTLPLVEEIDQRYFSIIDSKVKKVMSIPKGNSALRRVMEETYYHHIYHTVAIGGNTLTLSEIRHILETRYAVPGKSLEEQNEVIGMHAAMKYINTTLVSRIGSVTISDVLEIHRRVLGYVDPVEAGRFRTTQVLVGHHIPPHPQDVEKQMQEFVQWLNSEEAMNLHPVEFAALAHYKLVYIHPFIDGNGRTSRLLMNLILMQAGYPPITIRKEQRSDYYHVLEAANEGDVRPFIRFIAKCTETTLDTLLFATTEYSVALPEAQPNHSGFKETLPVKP
Assay: Fluorescence polarization (FP) microplate autoAMPylation assay with Fl-ATP, E234G HYPE inhibitor HTS, cherrypick validation and concentration-response
Assay type: biochemical
Conditions: for inhibition at 10 µM: 10 μM compound
Experimental: Buffer optimization experiments were performed by incubating 0.4 μM of Δ102 HYPE enzyme with 25 nM Fl-ATP (final concentrations) in HTS buffer (50 mM HEPES (pH 7.5), 1 mM MgCl2, 0.1% Triton X-100, 1% DMSO) in the dark at room temperature for 10 min in 384-well black bottom, black wall microplates (20 μL reaction volume). Where specified, 1 mM MgCl2 was replaced with an equivalent concentration of MnCl2, or 0.1% Triton X-100 was replaced with 0.05% or 0.01% Trion X-100. Microplates were snap centrifuged at 1000 g for 10 sec. Microplates were loaded onto a BioTek BioStack NEO2 plate-reader and assessed for fluorescence polarization with 485/530 nm filters and a 55/50 gain adjustment.
A Multidrop 384 reagent dispenser (ThermoFisher) was used to add 0.4 μM HYPE, then 25 nM Fl-ATP (final concentrations) to 384-well black/black microplates (20 μL reaction volume). Both enzyme and nucleotide were dissolved in HTS Buffer. AMPylation Reactions were incubated for 10 min at room temperature in the dark. Microplates were snap centrifuged at 1000 g for 10 sec, then transferred to BioTek BioStack NEO2 plate-reader. Reactions were assessed for fluorescence polarization with 485/530 nm filters and a 55/50 gain adjustment. Z′, S/B, and CV values were determined by fitting the data to Eq. 1, 2, and 3, respectively,
An Echo Liquid Handler (Labcyte) was used to transfer 200 nL of DMSO-dissolved compounds via acoustic-coupled ejection from 10 mM source plates into 384-well black, flat-bottom, black-walled microplates, for a final compound concentration of 10 μM. Compounds were sourced from the following libraries: DIVERset (Chembridge), CNS-Set (Chembridge). The compounds went into columns 3-22 of each plate, while columns 1, 2, 23, and 24 were reserved for equivalent volume of 100% DMSO controls.
A Multidrop 384 reagent dispenser was used to pipette 0.4 μM of WT HYPE (final concentration) dissolved in HTS Buffer into columns 1-22 of the activator plates, and columns 1 and 2 of the inhibitor plates as positive controls. 0.4 μM of E234G HYPE was similarly added to columns 3-24 of the inhibitor plates, and columns 23 and 24 of the […]. Enzymes were then incubated with either compounds or DMSO for 10 min at room temperature.
A Multidrop 384 reagent dispenser was used to pipette 25 nM of Fl-ATP (final concentration) into all wells of each plate, giving a final reaction volume of 20 μL. Plates were then incubated for 10 min at room temperature in the dark, followed by a snap centrifugation at 1000 g for 10 sec. Microplates were loaded onto BioTek BioStack stacker and read in succession for fluorescence polarization with 485/530 nm filters and a 55/50 gain adjustment. Fluorescence polarization values were converted to fractional activation (FA) or fractional inhibition FI) values according to Eq. (3) or (4), respectively,
[formula] [formula] • where μp and μn are the means of the positive (E234G HYPE) and negative (WT HYPE) controls, respectively; and x is the measured value of fluorescence polarization.
Microplate “cherrypicking” validations were performed as described above.
A Multidrop 384 reagent dispenser was used to pipette 0.4 μM of WT or E234G HYPE (final concentrations) dissolved in HTS Buffer into designated microplate wells. 10 μM of DMSO-dissolved compounds (final concentrations) or equivalent volume of 100% DMSO were manually pipetted into their specified wells. Enzymes were incubated with compounds or DMSO for 10 min at room temperature. Reagent dispenser was then used to pipette 25 nM of Fl-ATP (final concentration) into each well, followed by a 10 min incubation at room temperature in the dark. Plates were snap centrifuged at 1000 g for 10 sec, then transferred to BioTek BioStack NEO2 plate-reader. Reactions were assessed for fluorescence polarization with 485/530 nm filters and a 55/50 gain adjustment. EC50 and IC50 values were determined by fitting polarization values to Eq. (5) and (6), respectively, […]

In the case of c1cn(-c2ccc(-c3nnc(-c4ccoc4)o3)cn2)cn1 [Compound I2.10], the “AMPylation at in vitro saturation point of inhibition” value (50 μM) is reported as “zero percent AMPylation”, the “IC50 (concentration-response of E234G HYPE inhibition)” value (FP microplate, inhibitors 0 to 200 μM) is reported as “low micromolar” and the inhibition at 10 µM (cherrypick validation, same FP assay, read-out: % Inh. Cherry-pick) is reported as 29.7%. The inhibition at 10 µM (initial HTS, normalized to WT and E234G HYPE DMSO controls, read-out: % Inh. HTS) was 24.5% and the “Mean % Inh.” value (mean of HTS and cherrypick) was 27.1%.
